We go through 6 molecules from patent US7521427B2 (Georgia Tech Research Corporation, priority 2004, dated 2009).

Where two headings read alike, the source gives them in different places.

One assay concerns the target T1, calpain I (Homo sapiens, UniProt P07384).
T1 construct: purchased Calbiochem (La Jolla, Calif.)
T1 sequence (P07384 1-714): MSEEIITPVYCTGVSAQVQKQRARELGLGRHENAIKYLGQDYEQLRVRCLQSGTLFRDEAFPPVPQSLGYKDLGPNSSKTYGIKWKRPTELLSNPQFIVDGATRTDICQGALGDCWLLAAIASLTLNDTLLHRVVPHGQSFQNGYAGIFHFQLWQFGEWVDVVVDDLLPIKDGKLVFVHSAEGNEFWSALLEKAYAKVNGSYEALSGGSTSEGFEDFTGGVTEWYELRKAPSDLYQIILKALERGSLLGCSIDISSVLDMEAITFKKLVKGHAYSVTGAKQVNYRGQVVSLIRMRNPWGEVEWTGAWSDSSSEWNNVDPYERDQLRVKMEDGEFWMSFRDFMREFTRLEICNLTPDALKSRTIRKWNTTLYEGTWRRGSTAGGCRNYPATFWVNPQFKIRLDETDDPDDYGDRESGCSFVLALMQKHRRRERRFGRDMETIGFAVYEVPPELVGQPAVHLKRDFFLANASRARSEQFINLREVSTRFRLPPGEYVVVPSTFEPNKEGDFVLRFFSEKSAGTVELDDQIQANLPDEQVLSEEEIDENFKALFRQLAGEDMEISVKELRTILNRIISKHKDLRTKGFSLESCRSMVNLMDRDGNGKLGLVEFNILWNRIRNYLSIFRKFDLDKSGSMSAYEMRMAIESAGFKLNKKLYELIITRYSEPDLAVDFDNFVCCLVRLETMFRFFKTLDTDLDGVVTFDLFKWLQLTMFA
T1 sequence (P04632 1-268 partner): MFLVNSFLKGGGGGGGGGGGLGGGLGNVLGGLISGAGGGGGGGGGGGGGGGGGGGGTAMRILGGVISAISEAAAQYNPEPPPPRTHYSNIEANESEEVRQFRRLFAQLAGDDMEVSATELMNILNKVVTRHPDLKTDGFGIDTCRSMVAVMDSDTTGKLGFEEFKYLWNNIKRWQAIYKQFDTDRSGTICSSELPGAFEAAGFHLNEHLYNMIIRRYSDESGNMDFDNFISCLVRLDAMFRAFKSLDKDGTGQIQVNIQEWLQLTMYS
Description: Calpain I irreversible inhibition assay. The class given is biochemical, porcine. The conditions noted are these: 23° C.; for kinact/KI: read-out: kobs/[I] Calpain I. The procedure: Calpain I was purchased from Calbiochem (La Jolla, Calif.) in a solution of 30% glycerol at a concentration of 6.96 μM and stored at −20° C. prior to use. The calpain I assay was conducted with 235 μL of a solution of 50 mM Hepes, […], at pH 7.5 (calpain I buffer), 6.5 μL of Suc-Leu-Tyr-AMC substrate solution in DMSO and 4.2 μL of the enzyme solution (6.96 μM) at 23° C. The enzymatic activity was monitored by following the change in fluorescence for 10 min at 465 nm. The k2 values were obtained by non-linear regression analysis and corrected for substrate (1+[S]/KM=1.274). All assays were run in duplicate and the standard deviation was determined.

Another assay addresses T2, papain (Carica papaya, UniProt P00784).
T2 construct: purchased
T2 sequence (P00784 134-345): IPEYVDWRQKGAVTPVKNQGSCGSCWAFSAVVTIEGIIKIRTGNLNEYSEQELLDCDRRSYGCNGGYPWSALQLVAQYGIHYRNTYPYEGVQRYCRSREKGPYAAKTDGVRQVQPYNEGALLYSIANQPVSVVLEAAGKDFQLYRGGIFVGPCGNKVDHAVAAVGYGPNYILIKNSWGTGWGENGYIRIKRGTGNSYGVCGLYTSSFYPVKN
Nature of the assay: Papain incubation method inhibition assay. The conditions noted are these: for kinact/KI: pH 7.5, read-out: kobs/[I] Papain, incubation method; for kobs/[I] Papain: incubation method, pH 7.5. It is filed as biochemical. On the procedure:
(§1) The incubation method was used to measure the irreversible inhibition of papain and cathepsin B. With cathepsin B, 30 μL of a stock inhibitor solution was added to 300 μL of a 0.1 M potassium phosphate buffer containing 1.25 mM EDTA, 0.01% Brij 35 at pH 6.0, followed by the addition of 30 μL of a freshly prepared cathepsin B solution (approximate concentration 6.98×10^−3 μg/μL) in the same potassium phosphate buffer containing 1 mM DTT (freshly prepared). Aliquots (50 μL) from the inhibition mixture were withdrawn at various time intervals and added to 200 μL of a 0.1 M potassium phosphate buffer containing 1.25 mM EDTA, 0.01% Brij 35 at pH 6.0, and the substrate Cbz-Arg-Arg-AMC (499 μM). The release of 7-amino-4-methylcoumarin was monitored (λex=360 nm, λem=465 nm) using a Tecan Spectra Fluor microplate reader. Pseudo first-order inactivation rate constants were obtained from plots of In vt/vo versus time.
The incubation method was also used for commercially available papain. The inhibition incubation buffer for papain was 50 mM Hepes buffer at pH 7.5, containing 2.5 mM DTT (dithiothreitol) and 2.5 mM EDTA. The assay used the substrate Cbz-Phe-Arg-pNA (53.7 μM) in the same buffer. The approximate concentration of papain added to the incubation buffer was 0.29 mg/mL. The release of p-nitroanilide was monitored at 405 nm with a Molecular Devices Thermomax microplate reader. All assays were run in duplicate.

Assay [1] deals with T3, cathepsin B (Homo sapiens, UniProt P07858). Description: Cathepsin B incubation method inhibition assay. The class given is biochemical. As to conditions: pH 6.0, 23° C., N.I. = no inhibition after 20 minutes of incubation. The procedure:
as §1

For assay [2], the target named is T4, cathepsin L (Homo sapiens, UniProt P07711).
T4 construct: purchased Athens Research & Technology (Athens, Ga.)
T4 sequence (P07711 114-333): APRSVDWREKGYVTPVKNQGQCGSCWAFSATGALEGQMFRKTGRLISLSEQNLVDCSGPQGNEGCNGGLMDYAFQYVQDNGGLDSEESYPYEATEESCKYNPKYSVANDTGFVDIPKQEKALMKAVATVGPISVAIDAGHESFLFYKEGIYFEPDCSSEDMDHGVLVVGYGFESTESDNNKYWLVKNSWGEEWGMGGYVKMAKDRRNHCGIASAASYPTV
Description: Cathepsin L progress curve inhibition assay. It is filed as biochemical. The conditions noted are these: corrected for substrate; for kinact/KI: pH 5.5, progress curve method, read-out: kobs/[I] Cathepsin L. On the procedure: Cathepsin L was purchased from Athens Research & Technology (Athens, Ga.) in a 20 mM malonate buffer solution at pH 5.5 with 1 mM EDTA and 400 mM NaCl with a specific activity of 4.133 U/mg. The progress of cathepsin L inhibition was conducted with 243 μL of a solution of 0.25 M NaAc, 2 mM EDTA, 0.015% Brij, 5 mM DTT (dithiothreitol) at pH 5.5, 4 μL of Cbz-Phe-Arg-AMC substrate solution (16 mM) in DMSO (2% final concentration). Activity was monitored by following the change in fluorescence for 20 min at 465 nm. The kobs values were obtained by non-linear regression analysis and corrected for substrate (1+[S]/KM=1.274). All assays were run in duplicate and the standard deviation was determined.

In assay [3] the target is purified recombinant cruzain (Trypanosoma cruzi, UniProt P25779). Description: Cruzain IC50 determination. It is filed as biochemical. As to conditions: for IC50: cruzain 2 nM, 5 minutes preincubation at room temperature, pH 5.5. The procedure: (§2) Inhibitors were screened for effectiveness against purified recombinant cruzain and rhodesain. Cruzain (2 nM) or rhodesain (3 nM) was incubated with 0.0001 to 1 μM inhibitor in 100 mM sodium acetate buffer, pH 5.5 and 5 mM DTT (buffer A), for 5 minutes at room temperature. Buffer A containing Cbz-Phe-Arg-AMC (Bachem, KM=1 μM, AMC=7-amino-4-methylcoumarin) was added to the enzyme and inhibitor to give 20 or 10 μM substrate concentration for cruzain and rhodesain, respectively, in 200 μL. The increase in fluorescence (excitation at 355 nm and emission at 460 nm) was followed with an automated microtiter plate spectrofluorimeter (Molecular Devices, Flex Station). Inhibitor stock solutions were prepared at 20 mM in DMSO and serial dilutions were made in DMSO (0.7% DMSO in assay). Controls were performed using enzyme alone, and enzyme with DMSO. IC50 values were determined graphically using inhibitor concentrations in the linear portion of a plot of enzyme activity versus log [I] (7 concentrations tested with at least 2 in the linear range).
Chain of purified recombinant cruzain (P25779 123-467): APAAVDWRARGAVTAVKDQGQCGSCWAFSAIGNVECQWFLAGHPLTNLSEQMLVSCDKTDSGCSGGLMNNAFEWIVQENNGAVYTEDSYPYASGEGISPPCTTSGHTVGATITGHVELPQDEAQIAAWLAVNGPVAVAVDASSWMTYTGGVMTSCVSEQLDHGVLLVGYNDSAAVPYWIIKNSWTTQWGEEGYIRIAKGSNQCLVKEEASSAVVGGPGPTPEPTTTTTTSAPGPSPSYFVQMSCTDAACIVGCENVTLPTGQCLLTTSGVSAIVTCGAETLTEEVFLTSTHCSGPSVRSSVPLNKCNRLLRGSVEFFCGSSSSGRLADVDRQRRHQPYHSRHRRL

The target of assay [4] is purified recombinant rhodesain (Trypanosoma brucei rhodesiense, UniProt Q95PM0). Nature of the assay: Rhodesain IC50 determination. It is filed as biochemical, Trypanosoma brucei rhodensiense. As to conditions: for IC50: rhodesain 3 nM, 5 minutes preincubation at room temperature, pH 5.5. On the procedure:
as §2

For assay [5], the target named is T3, cathepsin B. The conditions noted are these: irreversible inhibition; cited from earlier work.
The target in assay [6] is T4, cathepsin L. The conditions noted are these: irreversible inhibition; cited from earlier work.
The next assay deals with T5, cathepsin H (Homo sapiens, UniProt P09668).
T5 sequence (P09668 98-335): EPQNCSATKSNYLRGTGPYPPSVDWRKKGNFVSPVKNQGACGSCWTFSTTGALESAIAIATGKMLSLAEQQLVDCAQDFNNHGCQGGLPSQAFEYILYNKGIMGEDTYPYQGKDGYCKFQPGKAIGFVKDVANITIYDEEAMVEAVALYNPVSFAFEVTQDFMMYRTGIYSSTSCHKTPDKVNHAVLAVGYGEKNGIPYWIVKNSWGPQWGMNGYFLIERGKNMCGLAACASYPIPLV
As to conditions: irreversible inhibition; cited from earlier work.

Where [7] appears, read: pH 7.5, progress curve method, corrected for substrate.
[8] abbreviates: pH 7.5, incubation method, plots of ln vt/v0 vs time.

Chain of purified recombinant rhodesain (Q95PM0 entry or part of it): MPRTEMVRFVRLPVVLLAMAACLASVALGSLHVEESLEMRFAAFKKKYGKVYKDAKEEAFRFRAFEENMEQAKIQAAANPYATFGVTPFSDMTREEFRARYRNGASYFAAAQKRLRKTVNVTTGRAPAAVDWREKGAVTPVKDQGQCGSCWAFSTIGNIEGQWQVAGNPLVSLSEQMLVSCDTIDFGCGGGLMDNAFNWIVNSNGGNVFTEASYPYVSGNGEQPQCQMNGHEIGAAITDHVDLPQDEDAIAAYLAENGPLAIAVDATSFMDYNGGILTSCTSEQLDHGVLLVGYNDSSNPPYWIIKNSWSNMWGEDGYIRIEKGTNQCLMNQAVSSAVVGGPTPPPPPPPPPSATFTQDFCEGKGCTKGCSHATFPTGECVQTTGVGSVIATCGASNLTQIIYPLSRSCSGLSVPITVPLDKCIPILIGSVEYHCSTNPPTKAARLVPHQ

In the case of `CC(C)C[C@H](NC(=O)OCc1ccccc1)C(=O)N[C@H](C=CS(=O)(=O)c1ccccc1)Cc1ccccc1` [reference compound], the kinact/KI is 550 ± 2 M⁻¹ s⁻¹ at calpain I (setting [7]), 10 M⁻¹ s⁻¹ at papain and 219 ± 96 M⁻¹ s⁻¹ on cathepsin L [2]. Moreover, the “kobs/[I] Cathepsin B” value at cathepsin B [1] was “N.I”. Also, the 50% inhibitory concentration (IC50) (as a rule, the midpoint of a concentration-inhibition curve) in [3] (IC50 Cruzain) was 2 µM; in [4] (read-out: IC50 Rhodesain), 0.5 µM. Besides, the “fold less potent with cruzain than the corresponding allyl sulfone Cbz-Leu-Phe-AS-Ph” value in [3] (ratio of IC50 values) is given as “over 30 fold”. In assay [4] (ratio of IC50 values), the “fold less potent with rhodesain than the corresponding allyl sulfone Cbz-Leu-Phe-AS-Ph” value is more than 12 fold.
In the case of `CC(C)[C@H](NC(=O)OCc1ccccc1)C(=O)NC(=CCS(=O)(=O)c1ccccc1)Cc1ccccc1` (mixture of isomers) [Cbz-Val-Phe-AS-Ph, Phenyl-3-(N-carbobenzyloxyvalyl)amino-4-phenylbut-2-enyl Sulfone], the kinact/KI on calpain I (setting [8]) worked out at 3 M⁻¹ s⁻¹; at papain, 6 ± 1 M⁻¹ s⁻¹; on cathepsin L [2] it was 310 ± 52 M⁻¹ s⁻¹. In addition, the “kobs/[I] Cathepsin B” value at cathepsin B [1] was “N.I”. In addition, the half-maximal inhibitory concentration (IC50) worked out at 6 µM in assay [3] (read-out: IC50 Cruzain) and 5 µM in assay [4] (IC50 Rhodesain).
As for `CC(C)C[C@H](NC(=O)OCc1ccccc1)C(=O)NC(=CCS(=O)(=O)c1ccccc1)Cc1ccccc1` (single isomer, unassigned) [Cbz-Leu-Phe-AS-Ph (Isomer B), Phenyl-3-(N-carbobenzyloxyleucyl)amino-4-phenylbut-2-enyl Sulfone], at calpain I (setting [7]), the kinact/KI was determined as 564 ± 32 M⁻¹ s⁻¹. The “kobs/[I] Calpain I” value on calpain I (progress curve method, corrected for substrate, pH 7.5) was 564 M⁻¹ s⁻¹. The “kobs/[I] Papain” value at papain stood at 15 ± 1 M⁻¹ s⁻¹. On cathepsin B [1], the “kobs/[I] Cathepsin B” value is on record as “N.I”. Further, the “kobs/[I] Cathepsin L” value at cathepsin L [2] (progress curve method, pH 5.5) stood at 1062 M⁻¹ s⁻¹. Further, the IC50 in assay [3] (read-out: IC50 Cruzain) worked out at 0.3 µM; in assay [4] (IC50 Rhodesain) it was 0.18 µM.
With `C[C@H](NC(=O)OCc1ccccc1)C(=O)NC(=CCS(=O)(=O)c1ccccc1)Cc1ccccc1` (mixture of isomers) [Cbz-Ala-Phe-AS-Ph, Phenyl-3-(N-carbobenzyloxyalanyl)amino-4-phenylbut-2-enyl Sulfone], the kinact/KI at calpain I (setting [8]) stood at 3 M⁻¹ s⁻¹; at papain, 9 M⁻¹ s⁻¹; at cathepsin L [2] it was 183 ± 10 M⁻¹ s⁻¹. Further, the “kobs/[I] Cathepsin B” value at cathepsin B [1] is “N.I.^f”. Moreover, the IC50 in [3] (read-out: IC50 Cruzain) and in assay [4] (IC50 Rhodesain) was more than 10 µM throughout.
On to `CC(C)C[C@H](NC(=O)OCc1ccccc1)C(=O)NC(=CCS(=O)(=O)c1ccccc1)Cc1ccccc1` (single isomer, unassigned) [Cbz-Leu-Phe-AS-Ph (Isomer A), Phenyl-3-(N-carbobenzyloxyleucyl)amino-4-phenylbut-2-enyl Sulfone], for which the kinact/KI at calpain I (setting [8]) came out at 23 ± 4 M⁻¹ s⁻¹; on cathepsin L [2] it was 700 ± 43 M⁻¹ s⁻¹. The “kobs/[I] Papain” value on papain was found to be 49 M⁻¹ s⁻¹. The “kobs/[I] Cathepsin B” value at cathepsin B [1] is on record as “N.I”. For the same molecule, the IC50 in assay [3] (read-out: IC50 Cruzain) was found to be 0.06 µM; in [4] (IC50 Rhodesain) it was 0.04 µM.
Regarding `CC(C)CCNC(=O)[C@H](CC(C)C)NC(=O)/C=C/C(=O)O` (stereo in doubt) [fumarate derivative of E-64c, trans-HOOCCH═CH—CO-Leu-NH(CH2)2CH(CH3)2], the “kapp cathepsin B” value on cathepsin B [5] was 625 M⁻¹ s⁻¹. For the same molecule, on cathepsin L [6], the “kapp cathepsin L” value was 2272 M⁻¹ s⁻¹. Also, the “inhibition of cathepsin H” value at cathepsin H is “inhibits”.
